From paper PMC5353720 (2017)

System: PSA-aptamer (DNA, aptamer) TTTTTAATTAAAGCTCGCCATCAAATAGCTTT
Test: extended-gate field-effect transistor (AptaFET)
Settings: PBS, 1 mM MgCl2 (incubation); PBS (readout); 500 nM highest tested; shift 2.7 ± 0.3 mV against 22.3 mV on TFV-aptamer; immobilised aptamer

binding: no
SMILES: C[C@H](Cn1cnc2c(N)ncnc21)OCP(=O)(O)O
